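Grown in 96-well plates, cells were treated for 48 hours with each compound at five concentrations. Insufficient inhibition: endpoint recorded as highest concentration tested. Here, GI50 denotes the concentration required for 50% inhibition of growth.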 Active and inactive are the calls of the source. Rule as the data show it: active = GI50 up to about 1.1 µM and inactive = higher.
How the values were obtained:
Experiment in all cases: DTP human tumour cell line panel, 48 h
RPMI-8226 = test system: RPMI-8226
NCI-H23 = test system: NCI-H23
U-251 = test system: U-251
SF-268 = test system: SF-268
MOLT-4 = test system: MOLT-4
SR = test system: SR
M14 = test system: M14
A498 = test system: A498
SK-MEL-5 = test system: SK-MEL-5
SNB-78 = test system: SNB-78
SK-OV-3 = test system: SK-OV-3
HCT-116 = test system: HCT-116
COLO 205 = test system: COLO 205
DMS-114 = test system: DMS-114
NCI-H460 = test system: NCI-H460
LOX IMVI = test system: LOX IMVI
SN12C = test system: SN12C
786-0 = test system: 786-0
UACC-257 = test system: UACC-257
OVCAR-8 = test system: OVCAR-8

Measured: GI50

Cc1cc(NS(=O)(=O)c2ccc(NC(=O)c3cccn4c(=O)c5ccccc5nc34)cc2)no1
inactive: RPMI-8226 > 100 µM | NCI-H23 > 100 µM | U-251 > 100 µM | SF-268 > 100 µM | MOLT-4 > 100 µM | SR > 100 µM | M14 > 100 µM | A498 > 100 µM | SK-MEL-5 > 100 µM | SNB-78 > 100 µM | SK-OV-3 > 100 µM | HCT-116 > 100 µM | COLO 205 > 100 µM | DMS-114 > 100 µM | NCI-H460 > 100 µM | LOX IMVI > 100 µM | SN12C > 100 µM | 786-0 > 100 µM | UACC-257 > 100 µM | OVCAR-8 > 100 µM

COC(=O)C1=C(C)N(NC(=O)OC(C)(C)C)C(=O)C1=P(c1ccccc1)(c1ccccc1)c1ccccc1
inactive: RPMI-8226 > 100 µM | NCI-H23 > 100 µM | U-251 > 100 µM | SF-268 > 100 µM | MOLT-4 41.4 µM | SR 69 µM | M14 > 100 µM | A498 > 100 µM | SK-MEL-5 > 100 µM | SNB-78 > 100 µM | SK-OV-3 > 100 µM | HCT-116 > 100 µM | COLO 205 > 100 µM | DMS-114 > 100 µM | NCI-H460 > 100 µM | LOX IMVI > 100 µM | SN12C > 100 µM | 786-0 > 100 µM | UACC-257 > 100 µM | OVCAR-8 > 100 µM

— ChEMBL document CHEMBL1201862, “PubChem BioAssay data set” (2004)
